Assay results: patent US6451353B1 (priority 1997, dated 2002)

Tests used:
Sarcoma 180 [1] = assay: Combination with 5-fluorouracil and 60Co gamma rays on mouse sarcoma 180; type: in vivo; settings: Kunming mice, Fagopyrum Composition 100 mg/kg p.o. × 10, 5-FU 5 mg/kg i.p. × 10, γ 300 rad × 1
Protocol: 60 Kunming mice were obtained from the breeding center of Chengdu Institute of Biological Products, the Ministry of Health, Chengdu, Sichuan Province, P. R. China.
Sarcoma 180 was obtained from the Division of Pharmacology, Sichuan Institute of Antibiotic Industry, Chengdu, Sichuan Province, P. R. China. The tumor line had been passed on several times in Kunming mice.
The drug was prepared by Nantong Pharmaceuticals, Nantong, Jiangsu Province, P. R. China.
Inoculation of tumor line and evaluation of therapeutic efficacy were performed according to “Procedures of in vivo Screening of Antineoplastic Drugs” established in P. R. China in 1978.
Sixty mice were divided into 6 groups, 10 mice for each group. Group 1 was the control group wherein the mice were treated only by saline. Groups 2 to 6 were treatment groups using different therapies. […] Group 3 was treated with 5-Fluorouracil. Group 4 was treated with ^60Co irradiation. […] Result of each group was then calculated and compared.

cervical carcinoma U14 = assay: Inhibiting effect on mouse cervical carcinoma U14; type: in vivo; settings: Table 13, ICR mice; 5-Fu 5 mg/kg/d i.p. × 9
Protocol: Healthy Kunming and ICR mice with a body weight of 18-22 g. each were obtained from the breeding center of Sichuan Institute of Antibiotic Industry, Chengdu, Sichuan Province, P. R. China. Both male and female mice were used in the experiment. Uterine carcinoma U14 was obtained from the Division of Pharmacology, Sichuan Institute of Antibiotic Industry, Chengdu, Sichuan Province, P. R. China. […] The experiment was carried out in vivo according to “Procedures of in vivo Screening of Antineoplastic Drugs” established in P. R. China in 1978.

Sarcoma 180 [2] = assay: Inhibiting effect on mouse sarcoma 180; type: in vivo; settings: ICR mice; 5-Fu 5 mg/kg/d i.p. × 12
Protocol: Healthy Kunming and ICR mice with a body weight of 18-22 g. each were obtained from the breeding center of Sichuan Institute of Antibiotic Industry, Chengdu, Sichuan Province, P. R. China. Both male and female mice were used in the experiment. Sarcoma 180 was obtained from the Division of Pharmacology, Sichuan Institute of Antibiotic Industry, Chengdu, Sichuan Province, P. R. China. […] The experiment was carried out in vivo according to “Procedures of in vivo Screening of Antineoplastic Drugs” established in P. R. China in 1978.

Tumor = assay: Tumor-inhibiting rates of extracts obtained with different solvents; type: in vivo, mice; settings: 5-FU 10 mg/kg
Lewis lung carcinoma = assay: Inhibiting effect on Lewis lung carcinoma; type: in vivo, mice; settings: Table 9; 5-Fu 5 mg/kg/d i.p. × 10
Protocol: Healthy C57BL/6N mice with a body weight of 18-22 g. each were obtained from the breeding center of Sichuan Institute of Antibiotic Industry, Chengdu, Sichuan Province, P. R. China. Both male and female mice were used in the experiment. Lewis lung carcinoma was obtained from the Division of Pharmacology, Sichuan Institute of Antibiotic Industry, Chengdu, Sichuan Province, P. R. China. […] The experiment was carried out in vivo according to “Procedures of in vivo Screening of Antineoplastic Drugs” established in P. R. China in 1978.

Change in Mean Value of Body Weight (cervical carcinoma U14): +3.93 g | Change in Mean Value of Body Weight (Sarcoma 180 [2]): +2.01 g | Change in Mean Value of Body Weight (Lewis lung carcinoma): +0.4 g
SMILES: O=c1[nH]cc(F)c(=O)[nH]1 [5-FU, 5-Fluorouracil]
Tumor Inhibiting Rate (Sarcoma 180 [1]): 47.8% | Tumor Weight (Sarcoma 180 [1]; saline control 1.36): 0.71 g | Average Tumor Weight (x ± SD) (cervical carcinoma U14): 1.27 ± 0.37 g | Tumor Inhibiting Rate (cervical carcinoma U14): 35.53% | Average Tumor Weight (x ± SD) (Sarcoma 180 [2]): 0.49 ± 0.25 g | Tumor Inhibiting Rate (Sarcoma 180 [2]): 51.49% | Tumor-inhibiting Rate (Tumor): 31.37% | Average Tumor Weight (x ± SD) (Lewis lung carcinoma): 0.74 ± 0.49 g | Tumor Inhibiting Rate (Lewis lung carcinoma): 52.26%
